SMILES strings stand for the structures. Numbers after ± are expanded uncertainties.

What is called viscosity is the internal friction of a fluid under shear. As usually defined, the mass density is mass per unit of volume.

Assay in the first series: not given
As to conditions: 358.15 K; 100 kPa; Liquid; Falling or rolling sphere viscometry.
For `CCCO` [propan-1-ol], the viscosity is listed as 0.574 ± 0.0072 mPa·s.
`CCCCCCCCCCC` [undecane]: the viscosity was 0.497 ± 0.0066 mPa·s.

The same series, now with this note: 358.15 K; 100 kPa; Liquid; Vibrating tube method.
In the case of `CCCCO` [butan-1-ol], the mass density worked out at 756.64 ± 1.5 kg/m3.
Same read-out and setting: the result for `CCCCCCO` [hexan-1-ol] reads 769.78 ± 1.6 kg/m3; that for `CCCCCO` [pentan-1-ol], 764.08 ± 1.5 kg/m3.
On to `CCCO` [propan-1-ol], for which the mass density amounted to 747.65 ± 1.5 kg/m3.
Turning to `CCCCCCCCCCC` [undecane], the mass density turned out to be 691.96 ± 1.4 kg/m3.

Still in this series, the particulars now being: 363.15 K; 100 kPa; Liquid; Falling or rolling sphere viscometry.
As to `CCCCO` [butan-1-ol], the viscosity was 0.633 ± 0.008 mPa·s.
Same read-out and setting: the result for `CCCCCCO` [hexan-1-ol] reads 0.925 ± 0.012 mPa·s.
On the same count and under the same terms, the result for `CCCCCO` [pentan-1-ol] reads 0.776 ± 0.01 mPa·s; that for `CCCO` [propan-1-ol], 0.528 ± 0.0066 mPa·s; that for `CCCCCCCCCCC` [undecane], 0.475 ± 0.0063 mPa·s.

The series is the same for the next values; noted with them: 363.15 K; 100 kPa; Liquid; Vibrating tube method.
Regarding `CCCCO` [butan-1-ol], the mass density turned out to be 752.08 ± 1.5 kg/m3.
On the same count and under the same terms, the result for `CCCCCCO` [hexan-1-ol] reads 765.64 ± 1.6 kg/m3; that for `CCCCCO` [pentan-1-ol], 759.77 ± 1.5 kg/m3; that for `CCCO` [propan-1-ol], 742.77 ± 1.5 kg/m3.
Same read-out and setting: the result for `CCCCCCCCCCC` [undecane] reads 688.18 ± 1.4 kg/m3.

Another series in a line: xn = mol fraction of the nth substance listed. As to conditions: 283.15 K; 100 kPa; Liquid; Falling or rolling sphere viscometry; x2 = 0.
`CCCCO` [butan-1-ol] + CCCCCCCCCCC: the viscosity was determined as 4.046 ± 0.051 mPa·s.
On the same count and under the same terms, the result for `CCCCCCO` [hexan-1-ol] + CCCCCCCCCCC reads 7.487 ± 0.1 mPa·s; that for `CCCCCO` [pentan-1-ol] + CCCCCCCCCCC, 5.431 ± 0.074 mPa·s; that for `CCCO` [propan-1-ol] + CCCCCCCCCCC, 2.834 ± 0.036 mPa·s.

Still in this series, the particulars now being: 283.15 K; 100 kPa; Liquid; Vibrating tube method; x2 = 0.
In the case of `CCCCO` [butan-1-ol] + CCCCCCCCCCC, the mass density came out at 817.07 ± 1.6 kg/m3.
On the same count and under the same terms, the result for `CCCCCCO` [hexan-1-ol] + CCCCCCCCCCC reads 825.94 ± 1.7 kg/m3; that for `CCCCCO` [pentan-1-ol] + CCCCCCCCCCC, 821.9 ± 1.7 kg/m3.
The same measure, in the same setting: the result for `CCCO` [propan-1-ol] + CCCCCCCCCCC reads 811.48 ± 1.6 kg/m3.

The same series, now with this note: 288.15 K; 100 kPa; Liquid; Falling or rolling sphere viscometry; x2 = 0.
Turning to `CCCCO` [butan-1-ol] + CCCCCCCCCCC, the viscosity came out at 3.514 ± 0.044 mPa·s.
Still for that read-out and setting: the result for `CCCCCCO` [hexan-1-ol] + CCCCCCCCCCC reads 6.307 ± 0.086 mPa·s; that for `CCCCCO` [pentan-1-ol] + CCCCCCCCCCC, 4.655 ± 0.063 mPa·s; that for `CCCO` [propan-1-ol] + CCCCCCCCCCC, 2.489 ± 0.031 mPa·s.

The series is the same for the next values; noted with them: 288.15 K; 100 kPa; Liquid; Vibrating tube method; x2 = 0.
Turning to `CCCCO` [butan-1-ol] + CCCCCCCCCCC, the mass density worked out at 813.32 ± 1.6 kg/m3.
Still for that read-out and setting: the result for `CCCCCCO` [hexan-1-ol] + CCCCCCCCCCC reads 822.42 ± 1.7 kg/m3.
Consider `CCCCCO` [pentan-1-ol] + CCCCCCCCCCC, for which the mass density was found to be 818.3 ± 1.6 kg/m3.
Still for that read-out and setting: the result for `CCCO` [propan-1-ol] + CCCCCCCCCCC reads 807.54 ± 1.6 kg/m3.

The series is the same for the next values; noted with them: 293.15 K; 100 kPa; Liquid; Falling or rolling sphere viscometry; x2 = 0.
In the case of `CCCCO` [butan-1-ol] + CCCCCCCCCCC, the viscosity is 3.066 ± 0.039 mPa·s.
The same measure, in the same setting: the result for `CCCCCCO` [hexan-1-ol] + CCCCCCCCCCC reads 5.348 ± 0.073 mPa·s.
On the same count and under the same terms, the result for `CCCCCO` [pentan-1-ol] + CCCCCCCCCCC reads 4.011 ± 0.054 mPa·s.
Same read-out and setting: the result for `CCCO` [propan-1-ol] + CCCCCCCCCCC reads 2.195 ± 0.028 mPa·s.

The same series, now with this note: 293.15 K; 100 kPa; Liquid; Vibrating tube method; x2 = 0.
For the compound `CCCCO` [butan-1-ol] + CCCCCCCCCCC, the mass density is 809.55 ± 1.6 kg/m3.
On the same count and under the same terms, the result for `CCCCCCO` [hexan-1-ol] + CCCCCCCCCCC reads 818.88 ± 1.6 kg/m3; that for `CCCCCO` [pentan-1-ol] + CCCCCCCCCCC, 814.68 ± 1.6 kg/m3.
Still for that read-out and setting: the result for `CCCO` [propan-1-ol] + CCCCCCCCCCC reads 803.58 ± 1.6 kg/m3.

Still in this series, the particulars now being: 298.15 K; 100 kPa; Liquid; Falling or rolling sphere viscometry; x2 = 0.
As to `CCCCO` [butan-1-ol] + CCCCCCCCCCC, the viscosity turned out to be 2.59 ± 0.033 mPa·s.
Same read-out and setting: the result for `CCCCCCO` [hexan-1-ol] + CCCCCCCCCCC reads 4.555 ± 0.062 mPa·s; that for `CCCCCO` [pentan-1-ol] + CCCCCCCCCCC, 3.474 ± 0.047 mPa·s; that for `CCCO` [propan-1-ol] + CCCCCCCCCCC, 1.929 ± 0.024 mPa·s.

The same series, now with this note: 298.15 K; 100 kPa; Liquid; Vibrating tube method; x2 = 0.
In the case of `CCCCO` [butan-1-ol] + CCCCCCCCCCC, the mass density was 805.76 ± 1.6 kg/m3.
As to `CCCCCCO` [hexan-1-ol] + CCCCCCCCCCC, the mass density is recorded as 815.32 ± 1.6 kg/m3.
The same measure, in the same setting: the result for `CCCCCO` [pentan-1-ol] + CCCCCCCCCCC reads 811.03 ± 1.6 kg/m3.
On the same count and under the same terms, the result for `CCCO` [propan-1-ol] + CCCCCCCCCCC reads 799.59 ± 1.6 kg/m3.

Staying with this series, now noted: 303.15 K; 100 kPa; Liquid; Falling or rolling sphere viscometry; x2 = 0.
`CCCCO` [butan-1-ol] + CCCCCCCCCCC: the viscosity amounted to 2.28 ± 0.029 mPa·s.
Same read-out and setting: the result for `CCCCCCO` [hexan-1-ol] + CCCCCCCCCCC reads 3.903 ± 0.053 mPa·s; that for `CCCCCO` [pentan-1-ol] + CCCCCCCCCCC, 3.023 ± 0.041 mPa·s.
On the same count and under the same terms, the result for `CCCO` [propan-1-ol] + CCCCCCCCCCC reads 1.714 ± 0.022 mPa·s.

The series is the same for the next values; noted with them: 303.15 K; 100 kPa; Liquid; Vibrating tube method; x2 = 0.
As for `CCCCO` [butan-1-ol] + CCCCCCCCCCC, the mass density is listed as 801.94 ± 1.6 kg/m3.
Regarding `CCCCCCO` [hexan-1-ol] + CCCCCCCCCCC, the mass density was 811.74 ± 1.6 kg/m3.
Same read-out and setting: the result for `CCCCCO` [pentan-1-ol] + CCCCCCCCCCC reads 807.37 ± 1.6 kg/m3; that for `CCCO` [propan-1-ol] + CCCCCCCCCCC, 795.58 ± 1.6 kg/m3.

Staying with this series, now noted: 308.15 K; 100 kPa; Liquid; Falling or rolling sphere viscometry; x2 = 0.
`CCCCO` [butan-1-ol] + CCCCCCCCCCC: the viscosity is reported as 2.015 ± 0.025 mPa·s.
`CCCCCCO` [hexan-1-ol] + CCCCCCCCCCC: the viscosity was determined as 3.361 ± 0.046 mPa·s.
Still for that read-out and setting: the result for `CCCCCO` [pentan-1-ol] + CCCCCCCCCCC reads 2.642 ± 0.036 mPa·s.
With `CCCO` [propan-1-ol] + CCCCCCCCCCC, the viscosity is 1.536 ± 0.019 mPa·s.

Staying with this series, now noted: 308.15 K; 100 kPa; Liquid; Vibrating tube method; x2 = 0.
In the case of `CCCCO` [butan-1-ol] + CCCCCCCCCCC, the mass density was 798.09 ± 1.6 kg/m3.
The same measure, in the same setting: the result for `CCCCCCO` [hexan-1-ol] + CCCCCCCCCCC reads 808.13 ± 1.6 kg/m3.
Still for that read-out and setting: the result for `CCCCCO` [pentan-1-ol] + CCCCCCCCCCC reads 803.67 ± 1.6 kg/m3.
Same read-out and setting: the result for `CCCO` [propan-1-ol] + CCCCCCCCCCC reads 791.53 ± 1.6 kg/m3.

Still in this series, the particulars now being: 313.15 K; 100 kPa; Liquid; Falling or rolling sphere viscometry; x2 = 0.
Turning to `CCCCO` [butan-1-ol] + CCCCCCCCCCC, the viscosity was 1.786 ± 0.022 mPa·s.
With `CCCCCCO` [hexan-1-ol] + CCCCCCCCCCC, the viscosity turned out to be 2.912 ± 0.039 mPa·s.
On the same count and under the same terms, the result for `CCCCCO` [pentan-1-ol] + CCCCCCCCCCC reads 2.32 ± 0.031 mPa·s.
On to `CCCO` [propan-1-ol] + CCCCCCCCCCC, for which the viscosity is on record as 1.372 ± 0.017 mPa·s.

The same series, now with this note: 313.15 K; 100 kPa; Liquid; Vibrating tube method; x2 = 0.
In the case of `CCCCO` [butan-1-ol] + CCCCCCCCCCC, the mass density is 794.2 ± 1.6 kg/m3.
Still for that read-out and setting: the result for `CCCCCCO` [hexan-1-ol] + CCCCCCCCCCC reads 804.5 ± 1.6 kg/m3; that for `CCCCCO` [pentan-1-ol] + CCCCCCCCCCC, 799.94 ± 1.6 kg/m3; that for `CCCO` [propan-1-ol] + CCCCCCCCCCC, 787.44 ± 1.6 kg/m3.

The series is the same for the next values; noted with them: 318.15 K; 100 kPa; Liquid; Falling or rolling sphere viscometry; x2 = 0.
With `CCCCO` [butan-1-ol] + CCCCCCCCCCC, the viscosity was determined as 1.589 ± 0.02 mPa·s.
The same measure, in the same setting: the result for `CCCCCCO` [hexan-1-ol] + CCCCCCCCCCC reads 2.538 ± 0.034 mPa·s.
As for `CCCCCO` [pentan-1-ol] + CCCCCCCCCCC, the viscosity is reported as 2.045 ± 0.028 mPa·s.
